Broadly, the IC50 is the concentration needed to halve the response being measured.

Molecules are shown by their SMILES.

The target in one assay is T1, KDR-Kinase (VEGFR-2) (Homo sapiens, UniProt P35968).
T1 construct: GST-kinase domain fusion construct of the KDR kinase; GST
As to the kind of experiment: KDR Kinase Inhibition. In kind it is biochemical. The conditions noted are these: GST-kinase domain fusion construct of KDR; poly(Glu4Tyr) substrate, 32P-ATP, 10 min. The method, then: Kinase activity was measured with a GST-kinase domain fusion construct of the KDR kinase according to the following protocol to obtain concentration response curves. Components were added into a microtiterplate in the following sequence: 10 μl of inhibitor in threefold final concentration [3% DMSO in buffer (40 mM TrisCl pH 7.5; 1 mM DTT, 1 mM MnCl2, 10 mM MgCl2, 2.5 Promille Polyethyleneglycol 20000)]and 10 μl of substrate mixture [24 μM ATP, 24 μg/ml poly(Glu4Tyr) in buffer, specific activity approx. 500 cpm/pmol ^32P-[…]ATP]. Reaction was started by adding 10 μl of enzyme preparation diluted appropriately in buffer that contains 10 μM vanadate. After incubation for exactly 10 min the reaction was stopped by adding of 10 μl stop solution (250 mM EDTA). 10 μl of the reaction mixture were transferred to phosphocellulose filters. The filters were washed in 0.1% phosphoric acid, dried before meltilex scintillator was applied (Waltac, Perkin-Elmer) and the radioactivity was counted.

In assay [1] the target is T2, Cytochrome P450 isoenzyme 2C9 (Homo sapiens, UniProt P11712).
T2 construct: host or cells: baculovirus/insect cells
T2 sequence (P11712 whole entry): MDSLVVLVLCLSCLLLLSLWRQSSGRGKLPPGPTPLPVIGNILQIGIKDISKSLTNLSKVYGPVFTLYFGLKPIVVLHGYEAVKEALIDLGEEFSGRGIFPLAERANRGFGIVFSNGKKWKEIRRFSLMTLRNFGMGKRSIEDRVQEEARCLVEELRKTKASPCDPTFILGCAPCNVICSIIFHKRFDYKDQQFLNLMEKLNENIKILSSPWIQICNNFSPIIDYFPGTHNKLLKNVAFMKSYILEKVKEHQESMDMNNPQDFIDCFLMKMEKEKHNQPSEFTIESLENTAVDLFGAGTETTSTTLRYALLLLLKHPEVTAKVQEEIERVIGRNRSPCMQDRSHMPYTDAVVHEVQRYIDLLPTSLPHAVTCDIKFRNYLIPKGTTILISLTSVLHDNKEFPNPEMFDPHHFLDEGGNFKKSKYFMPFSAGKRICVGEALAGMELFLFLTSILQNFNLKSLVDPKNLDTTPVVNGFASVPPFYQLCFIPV
As to the kind of experiment: Cytochrome P450 Inhibition (2C9). The format is in vitro ADME. Particulars: baculovirus/insect cell-expressed human isoenzyme, method of Crespi et al.; read-out: IC50 CYP 2C9. The method, then:
(§1) Cytochrome P450 Inhibition
(§2) The Cytochrome P450 isoenzyme inhibition was performed according to the publication of Crespi et al. (Anal. Biochem., 1997, 248, 188-190) with use of the baculovirus/insect cell-expressed, human Cytochrome P 450 isoenzymes (2C9 and 2C19).

The target of assay [2] is T3, Cytochrome P450 isoenzyme 2C19 (Homo sapiens, UniProt P33261).
T3 construct: host or cells: baculovirus/insect cells
T3 sequence (P33261 whole entry): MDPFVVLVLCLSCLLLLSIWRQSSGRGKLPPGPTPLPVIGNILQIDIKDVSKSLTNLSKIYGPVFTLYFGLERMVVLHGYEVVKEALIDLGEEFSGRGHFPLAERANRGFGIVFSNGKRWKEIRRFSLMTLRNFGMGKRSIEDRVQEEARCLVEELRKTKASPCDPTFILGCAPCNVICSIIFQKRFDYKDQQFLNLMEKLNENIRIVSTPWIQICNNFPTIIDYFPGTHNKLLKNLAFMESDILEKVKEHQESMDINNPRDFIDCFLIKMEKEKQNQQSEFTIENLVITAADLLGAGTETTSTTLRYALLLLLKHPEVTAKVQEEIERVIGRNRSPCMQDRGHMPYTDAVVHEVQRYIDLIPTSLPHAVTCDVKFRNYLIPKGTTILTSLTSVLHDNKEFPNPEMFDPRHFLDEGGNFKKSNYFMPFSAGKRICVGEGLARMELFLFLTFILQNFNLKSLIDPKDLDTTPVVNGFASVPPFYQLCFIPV
As to the kind of experiment: Cytochrome P450 Inhibition (2C19). In kind it is in vitro ADME. Particulars: baculovirus/insect cell-expressed human isoenzyme, method of Crespi et al.; read-out: IC50 CYP 2C19. The method, then: as §1, §2

T1 sequence (P35968 834-1162 limits assumed, species assumed): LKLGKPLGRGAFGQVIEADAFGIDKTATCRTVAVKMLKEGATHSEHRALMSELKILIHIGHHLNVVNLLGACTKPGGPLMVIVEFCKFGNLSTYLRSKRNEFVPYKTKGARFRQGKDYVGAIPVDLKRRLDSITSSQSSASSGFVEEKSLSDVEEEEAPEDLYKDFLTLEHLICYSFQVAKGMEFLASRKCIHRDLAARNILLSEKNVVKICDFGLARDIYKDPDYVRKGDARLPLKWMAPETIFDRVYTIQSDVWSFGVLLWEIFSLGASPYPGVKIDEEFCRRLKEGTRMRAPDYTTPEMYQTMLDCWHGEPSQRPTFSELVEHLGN

For the molecule `Cn1cc2ccc(NC(=O)c3ccccc3NCc3ccnc(NC(=O)N4CCC(O)CC4)c3)cc2n1` [Example 1.1, 4-hydroxy-piperidine-1-carboxylic acid (4-{[2-(2-methyl-2H-indazol-6-ylcarbamoyl)-phenylamino]-methyl}-pyridin-2-yl)-amide], the IC50 at KDR-Kinase (VEGFR-2) turned out to be 0.02 µM; in assay [1], 16 µM; in assay [2], 27 µM.

As to `Cn1cc2ccc(NC(=O)c3ccccc3NCc3ccnc(NC(=O)N4CCC(O)(C(F)(F)F)CC4)c3)cc2n1` [Example 1.2, 4-hydroxy-4-trifluoromethyl-piperidine-1-carboxylic acid (4-{[2-(2-methyl-2H-indazol-6-ylcarbamoyl)-phenylamino]-methyl}-pyridin-2-yl)-amide], the values for the IC50 (on KDR-Kinase (VEGFR-2); in assay [1]; in assay [2]) were 0.017 µM, 19 µM and 12 µM, respectively.

Consider `CN1CCN(C(=O)Nc2cc(CNc3ccccc3C(=O)Nc3ccc4cn(C)nc4c3)ccn2)CC1` [Example 3.0, 4-methyl-piperazine-1-carboxylic acid (4-{[2-(2-methyl-2H-indazol-6-ylcarbamoyl)-phenylamino]-methyl}-pyridin-2-yl)-amide], for which the IC50 against KDR-Kinase (VEGFR-2) is 0.029 µM; in assay [1], 4.4 µM; in assay [2] it was 8.9 µM.

For the molecule `Cn1cc2ccc(NC(=O)c3ccccc3NCc3ccnc(NC(=O)N4CCOCC4)c3)cc2n1` [Example 3.6, morpholine-4-carboxylic acid (4-{[2-(2-methyl-2H-indazol-6-ylcarbamoyl)-phenylamino]-methyl}-pyridin-2-yl)-amide], the IC50 at KDR-Kinase (VEGFR-2) worked out at 0.029 µM; in assay [1], 13 µM; in assay [2], 9 µM.
